Tests used:
[1] = cited from earlier work; for half-life: shelf life stability, order of magnitude
SRB or APB populations = test: Micro efficacy of field-generated PFA at a salt water disposal well (serial dilution bug bottles); type: cell-based; details: for log reduction in microbial population: compared to incoming water, serial dilution bug bottles selecting for SRB or APB
Experimental: The peroxyformic acid generator according to the embodiments depicted in the figures having multiple inlets to provide formic acid blend (formic acid, catalyst and corrosion inhibitor) as well as hydrogen peroxide was evaluated under field conditions at a scale-up volume. The generator was used at a salt water disposal well.
The performance of the chemistry generated in the field according to Example 5 was evaluated for micro efficacy. PFA dosed at 250 ppm (˜25 ppm active) indicates at least reduction in microbial numbers equivalent to 2-3 logs, as shown in FIG. 13. In the figures the GB refers to site of treatment (gun barrel) measurement, whereas SWD refers to the disposal water measurement for micro efficacy.
The percentage reduction of microbial numbers compared to incoming water was also evaluated. Microbial numbers were monitored using traditional serial dilution bug bottles that select for SRB or APB populations.

| Compound | half-life [1] | time to decompose into carbon dioxide and water ([1]; ambient temperature and pressure) | reduction in microbial numbers (SRB or APB populations; PFA dosed at 250 ppm (~25 ppm active), GB (gun barrel) and SWD (disposal water) measurements, FIG. 13) | log reduction in microbial population (SRB or APB populations; all results) | log reduction in microbial population (SRB or APB populations; in some case) [log] |
| --- | --- | --- | --- | --- | --- |
| CC(=O)OO [peracetic acid, reference compound] | weeks to months | – | – | – | – |
| performic acid [PFA] | minutes to hours | within a few hours | 2-3 logs | 2-3 log | 7 |
